{"source": "patent US7592003B2", "about": "“Regulation of toll-like receptors on stem cells” (Oklahoma Medical Research Foundation, priority 2005, dated 2009)", "tested_on": "CLP", "experiment": "Serum-free, stromal cell-free culture of CLP with SCF, FL and IL-7, CD19/Mac-1 flow cytometry", "format": "cell-based, mouse", "procedure": "FIGS. 6A-D—TLR stimulation allows lymphoid biased progenitors to produce myeloid dendritic cells at the expense of B lymphopoiesis. (FIG. 6A) Sorted CLP (5,000/well) from C57BL/6 or MyD88^−/− mice were stimulated in X-VIVO15 with medium alone, LPS (10 μg/ml) or Pam3CSK4 (100 ng/ml) plus SCF, FL and IL-7. After 7 days in culture, cells were analyzed by flow cytometry for expression of CD19and Mac-1 (left). The bar graphs depict cell yields for CD19^+ cells or Mac-1^+ cells (right) and the data represent mean values with standard deviations from triplicate cultures (*P<0.02). The results are representative of those obtained in five independent experiments. (FIG. 6B) Subsets of the recovered cells described in FIG. 6A were sorted and used to prepare Giemsa stained slides. (FIG. 6C) Cultured cells from C57BL/6 mice were also analyzed by flow cytometry for expression of Gr-1 and CD11c. (FIG. 6D) Sorted CLP from C57BL/6 mice were cultured in the presence of SCF, FL and IL-7 with a range of concentrations of LPS or combination of recombinant mouse CD14-Fc protein (1 μg/ml) plus LPS. After 7 days in culture, cells were analyzed by flow cytometry for expression of CD19 and Mac-1 (left). The bar graph depicts cell yields for CD19^+ cells or Mac-1^+ cells (right). Data represent mean values with standard deviations from triplicate cultures (*P<0.003). […]"}
{"substance": "Pam3CSK4", "values": [{"measurement": "Phenotype (CD11c, Gr-1) of cells produced from CLP", "setting": "7 days", "result": "Gr-1^− but less homogenous"}, {"measurement": "Cell types emerging from CLP (CD19+ vs Mac-1+)", "setting": "with SCF, FL and IL-7, 7 days", "result": "a mixture of the two cell types"}]}
